# In US20230242496A1, “SOX11 INHIBITORS FOR TREATING MANTLE CELL LYMPHOMA” (Icahn School of Medicine At Mount Sinai, priority 2020, published 2023):
# Experiments:
# [1] = test system: Jeko-1 (SOX11+); test: Cell viability assay (CellTiter-Blue resazurin reduction); assay type: cell-based; settings: Homo sapiens, JeKo-1, 72 h, JeKo-1 cells; for IC50: 0-40 μM; for viability at 20 µM: 20 μM compound, normalized to 0.2% DMSO
# Protocol: Cell viability was determined by a fluorometric resazurin reduction method (CellTiter-Blue; Promega, Madison, Wis.) following the manufacturer's instructions. […] Cells were incubated for 72 hours. After incubation, 20 μl CellTiter-Blue Cell was added to each well and incubated for another 2 hours. […] The number of viable cells in each treated well was calculated, based on the linear least squares regression of the standard curve (OD vs. cell concentration). The viability of cells treated with compounds was normalized to the viability of cells treated with 0.2% Dimethyl sulfoxide (DMSO). Cell counts were confirmed with Trypan Blue Exclusion Assay on the Countess automated cell counter (Invitrogen) according to the manufacturer's specifications. The average and mean standard deviation were calculated from three separate experiments. IC50 values were calculated using the GraphPad Prism (version 4.00) based on a sigmoidal dose-response equation.
# [2] = target: T1, (His)6-SOX11-DBD protein (Homo sapiens, UniProt P35716); test: Surface Plasmon Resonance (SPR) assay; assay type: binding; settings: immobilized recombinant (His)6-SOX11-DBD, 25° C., compounds 5-40 μM, mean of three experiments
# T1 construct: Recombinant (His)6-SOX11-DBD protein was immobilized
# T1 sequence (P35716 49-117 limits assumed): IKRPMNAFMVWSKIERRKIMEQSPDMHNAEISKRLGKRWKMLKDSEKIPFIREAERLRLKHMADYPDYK
# Protocol: Surface Plasmon Resonance (SPR) Assay
# Recombinant (His)6-SOX11-DBD protein was immobilized at a flow rate of 10 μl/min for 180 seconds to the right channel of a gold-coated SCR NiHC200M sensor chip (XanTec bioanalytics) placed in a Reichert 2SPR instrument (Reichert Technologies). The left channel, without immobilized protein, was used as a reference. […] Compounds flowed sequentially from the left to the right channel over the prepared sensor chip surface. 120 seconds association phase with each compound concentration was followed by 300 seconds dissociation phase with the assay buffer alone. The ka, kd, and KD values were determined from the sensograms for at least 3 concentrations of each compound by curve fitting the data using Reichert's TraceDrawer software. The mean KD value for each compound was calculated from three separate experiments.
Kd [2] [µM],SMILES,IC50 [1] [µM],viability at 20 µM [1] [%]
17.9,O=C1COc2ccc(C(=O)Nc3ccc(S(=O)(=O)Nc4ccccc4)cc3)cc2N1,> 20,61.1
2.22,Nc1cc(C(=O)Nc2ccc(S(=O)(=O)Nc3ccccc3)cc2)ccc1/C=C\C(=O)O,9,12.4
3.42,O=C(Nc1ccc(S(=O)(=O)Nc2ccccc2)cc1)c1ccc2ccccc2c1,> 20,96.3
2.01,O=C(Nc1ccc(S(=O)(=O)Nc2ccccc2)cc1)c1ccc2cccnc2c1,> 20,94.2
1.18,CC(C)C1Sc2ccc(C(=O)Nc3ccc(S(=O)(=O)Nc4ccccc4)cc3)cc2NC1=O (stereo not drawn),2.5,1.01
1.62,O=C(Nc1ccc(S(=O)(=O)Nc2ccccc2)cc1)c1ccc2c(c1)CCCS2,12,1.95
20.9,O=C1Cc2ccc(C(=O)Nc3ccc(S(=O)(=O)Nc4ccccc4)cc3)cc2N1,> 20,81.5
8.68,O=C(Nc1ccc(S(=O)(=O)Nc2ccccc2)cc1)c1ccc2oc(=O)[nH]c2c1,20,51.8
5.65,O=C(Nc1ccc(S(=O)(=O)Nc2ccccc2)cc1)c1ccc2snnc2c1,5 to 10,34.3
37.9,O=C(Nc1ccc(S(=O)(=O)Nc2ccccc2)cc1)c1ccc2ccncc2c1,5,24.8
78.5,O=C(Nc1ccc(S(=O)(=O)Nc2ccccc2)cc1)c1ccc2[nH]ncc2c1,20,47.6
7.75,CC1Sc2ccc(C(=O)N(c3ccccc3)S(=O)(=O)c3ccc(N)cc3)cc2NC1=O (stereo not drawn),> 20,91.2
24.8,CC1Sc2ccc(C(=O)Nc3ccc(S(=O)(=O)Nc4cc[nH]c(=O)c4)cc3)cc2NC1=O (stereo not drawn),18,34.8
100,CC1Sc2ccc(C(=O)Nc3ccc(S(=O)(=O)NC4CCNCC4)cc3)cc2NC1=O (stereo not drawn),> 20,80.7
17.5,CC1Sc2ccc(C(=O)Nc3ccc(S(=O)(=O)N4CCNCC4)cc3)cc2NC1=O (stereo not drawn),> 20,92.4
32,CC1Sc2ccc(C(=O)Nc3ccc(S(=O)(=O)Nc4ccc(O)cc4)cc3)cc2NC1=O (stereo not drawn),< 20,13.7
19.6,CC1Sc2ccc(C(=O)Nc3ccc(S(=O)(=O)Nc4ccc(N)cc4)cc3)cc2NC1=O (stereo not drawn),> 20,88
1.57,CC1Sc2ccc(C(=O)Nc3ccc(S(=O)(=O)Nc4ccc(C(F)(F)F)cc4)cc3)cc2NC1=O (stereo not drawn),> 20,63.6
1.95,CC1Sc2ccc(C(=O)Nc3ccc(S(=O)(=O)Nc4ccccc4)cc3)cc2N(C)C1=O (stereo not drawn),8,1.23
19,CC1Sc2ccc(C(=O)Nc3ccc(S(=O)(=O)NC4CCCCC4)cc3)cc2NC1=O (stereo not drawn),8,30.4
13.4,CC1Sc2ccc(C(=O)Nc3ccc(S(=O)(=O)NC4CCCC4)cc3)cc2NC1=O (stereo not drawn),15,36.3
30.9,CC1Sc2ccc(C(=O)Nc3ccc(S(=O)(=O)Nc4ccncc4)cc3)cc2NC1=O (stereo not drawn),> 20,103
5.51,CC1Sc2ccc(C(=O)Nc3ccc(S(=O)(=O)Nc4ccncn4)cc3)cc2NC1=O (stereo not drawn),> 20,106
15.4,CC1Sc2ccc(C(=O)Nc3cccc(S(=O)(=O)NC4CCCC4)c3)cc2NC1=O (stereo not drawn),16,38.5
38.6,O=C1CSc2ccc(C(=O)Nc3cccc(S(=O)(=O)N4CCCC4)c3)cc2N1,20,45.4
1.1,CC1Sc2ccc(C(=O)Nc3ccc(S(=O)(=O)Nc4ccccc4C(F)(F)F)cc3)cc2NC1=O (stereo not drawn),10,8.61
3.37,Cc1ccc(NC(=O)c2ccc3c(c2)NC(=O)CS3)cc1S(=O)(=O)Nc1cccc(Cl)c1,10,26.3
29.2,CC1Sc2ccc(C(=O)Nc3ccccc3S(=O)(=O)Nc3ccccc3)cc2NC1=O (stereo not drawn),< 20,14.2

Kd [2] [µM],SMILES,IC50 [1] [µM],viability at 20 µM [1] [%]
85,CC1Sc2ccc(C(=O)Nc3cccc(S(=O)(=O)N4CCOCC4)c3)cc2NC1=O (stereo not drawn),8,30.8
65.9,CC1Sc2ccc(C(=O)Nc3cccc(S(=O)(=O)N(C)C(C)C)c3)cc2NC1=O (stereo not drawn),6,9.64
90.9,CC(C)NS(=O)(=O)c1cccc(NC(=O)c2ccc3c(c2)NC(=O)C(C)S3)c1 (stereo not drawn),8,17.6
0.629,CC1Sc2ccc(C(=O)Nc3cccc(S(=O)(=O)Nc4cccc(F)c4)c3)cc2NC1=O (stereo not drawn),10,13.1
4.24,CC1Sc2ccc(C(=O)Nc3cccc(S(=O)(=O)Nc4ccc(Cl)cc4)c3)cc2NC1=O (stereo not drawn),11.5,10.4
5.07,CC1Sc2ccc(C(=O)ONc3ccc(S(=O)(=O)Nc4ccccc4)nc3)cc2NC1=O (stereo not drawn),> 20,90
31,CC1Sc2ccc(C(=O)Nc3ccc(S(=O)(=O)Nc4ccccc4)cc3F)cc2NC1=O (stereo not drawn),> 20,90
6.63,CC1Sc2ccc(C(=O)Nc3ccc(S(=O)(=O)Nc4ccccc4)s3)cc2NC1=O (stereo not drawn),> 20,57.4
13.7,CC1Sc2ccc(C(=O)Nc3ccc(C(=O)Nc4ccccc4)cc3)cc2NC1=O (stereo not drawn),> 20,97.5
33.2,CC1Sc2ccc(NC(=O)c3ccc(S(=O)(=O)Nc4ccccc4)cc3)cc2NC1=O (stereo not drawn),9,33.5
16.1,CC1Sc2ccc(NC(=O)c3ccc(S(=O)(=O)Nc4ccccc4)c(F)c3)cc2NC1=O (stereo not drawn),> 20,75.8
1.47,CC1Sc2ccc(C(=O)Nc3ccc(S(=O)(=O)N(C)c4ccccc4)cc3)cc2NC1=O (stereo not drawn),9,18
8.48,CC1Sc2ccc(C(=O)Nc3cccc(S(=O)(=O)Nc4ccc(F)cc4)c3)cc2NC1=O (stereo not drawn),> 20,55.6
2.12,CC1Sc2ccc(C(=O)Nc3cccc(S(=O)(=O)Nc4ccc(C(F)(F)F)cc4)c3)cc2NC1=O (stereo not drawn),< 20,22.2
6.08,Cc1ccc(NS(=O)(=O)c2cccc(NC(=O)c3ccc4c(c3)NC(=O)C(C)S4)c2)cc1 (stereo not drawn),7,2.16
96.9,CC1Sc2ccc(C(=O)Nc3cccc(S(=O)(=O)NC4CC4)c3)cc2NC1=O (stereo not drawn),4,11.9
7.42,Cc1ccccc1NS(=O)(=O)c1cccc(NC(=O)c2ccc3c(c2)NC(=O)C(C)S3)c1 (stereo not drawn),6,6.11
2.47,Cc1cccc(NS(=O)(=O)c2cccc(NC(=O)c3ccc4c(c3)NC(=O)C(C)S4)c2)c1 (stereo not drawn),10,3.73
28.7,CC1Sc2ccc(C(=O)Nc3cccc(S(=O)(=O)Nc4ccccc4F)c3)cc2NC1=O (stereo not drawn),13,22.7
91.7,CC1Sc2ccc(C(=O)Nc3cccc(S(=O)(=O)Nc4ccccc4C(F)(F)F)c3)cc2NC1=O (stereo not drawn),> 20,73.6
3.15,CC1Sc2ccc(C(=O)Nc3cccc(S(=O)(=O)Nc4cccc(Cl)c4)c3)cc2NC1=O (stereo not drawn),< 20,28.8
59.7,CC1Sc2ccc(C(=O)Nc3cccc(S(=O)(=O)Nc4ccc(N)cc4)c3)cc2NC1=O (stereo not drawn),> 20,59.7
5.07,CC1Sc2ccc(C(=O)Nc3cccc(S(=O)(=O)Nc4ccc(NC(=O)OC(C)(C)C)cc4)c3)cc2NC1=O (stereo not drawn),> 20,67.4
21.2,CC1Sc2ccc(C(=O)Nc3cccc(S(=O)(=O)Nc4ccncc4)c3)cc2NC1=O (stereo not drawn),> 20,95.8
15.6,CN(Cc1ccc(NC(=O)c2ccc3oc(=O)[nH]c3c2)cc1)c1ccccc1,,
6.67,O=C(Nc1ccc(S(=O)(=O)N2CCCCC2)cc1)c1ccc2c(c1)N(c1ccccc1)C(=O)CS2,,
5.28,FC(F)(F)c1cc(OCc2ccccc2)ccc1CNc1ccc2cncnc2c1,,
